Data on one molecule can be found in article PMC5086919, “Antileukemic Scalarane Sesterterpenoids and Meroditerpenoid from Carteriospongia (Phyllospongia) sp., Induce Apoptosis via Dual Inhibitory Effects on Topoisomerase II and Hsp90” (Scientific Reports, 2016).

The test system of assay [1] is Molt 4 cells. The assay is described as follows: MTT antiproliferative assay, leukemia Molt 4 cells. It counts as cell-based. The following applies: Homo sapiens.
Assay [2] deals with T1, human topoisomerase II (Homo sapiens, UniProt P11388).
T1 construct: purchased Topogen
As to the kind of experiment: Cell-free topoisomerase II DNA relaxation/cleavage assay with supercoiled pHOT1 plasmid DNA. It counts as biochemical. Particulars: compared with control supercoiled DNA. From the text:
The ability of Topo II to generate DNA damage in the presence of Topo II-targeting agents led to the hypothesis that an important determinant of drug sensitivity was related to the overall level of Topo II[17]. […] Such findings encouraged us to evaluate the effect of the isolates on Topo II activity. In order to confirm whether the DNA damage-induced by the isolated sesterterpenoids involved the inhibition of Topo II activity, a cell-free DNA cleavage assay using an enzyme-mediated negatively supercoiled pHOT1 plasmid DNA was applied. […] These marine terpenoids suppressed Topo II activity, resulting in the inhibition of supercoiled DNA relaxation in a dose-dependent manner (Fig. 5A). […] To determine whether the apoptotic mechanism of these compounds affects γH2AX (as a biomarker of DNA damage) induction, Western blot analysis was employed to examine the activation of γH2AX.
The assay was performed as described previously. […] Reactions were terminated by adding 2 μL of 10% SDS to facilitate trapping the enzyme in a cleavage complex, followed by the addition of 2.5 μL of proteinase K (50 μg/mL) to digest the bound protein (incubated at 37 °C for 15 min) and finally by adding 0.1 volume of the sample loading dye. The DNA products were analyzed via electrophoresis through vertical 2% agarose gels at 2 voltage/cm in 0.5 × TAE buffer. Gels were stained with ethidium bromide and photographed using an Eagle Eye II system (Stratagene, La Jolla, CA, USA). The quantitative analysis of the DNA Topo II activity was performed as described previously.

The test system of assay [3] is ER stress-related proteins in Molt 4 cells. The assay is described as follows: Western blot of ER stress-related proteins. The format is cell-based, human. The following applies: 0.0625 μg/mL, time-dependent. The method, then: (§1) Oxidative stress is manifested by ROS overexpression and cannot be balanced by the available antioxidant machinery. Compound 1 can damage the integrity of mitochondria, which are the major production sites of the superoxide anion, […]. The induction of the intracellular formation of ROS by 1 was determined with a carboxyl derivative of fluorescein, carboxy-H2DCFDA dye using flow cytometric analysis. […] In addition, ROS generation could induce ER stress leading to mitochondria-related apoptosis. To further investigate if ER stress is involved in the apoptotic effect induced by 1, Western blot analysis was used to determine the expression of ER stress-related proteins. […] Furthermore, the effect of 1 on the release of intracellular Ca^2+, was evaluated using fluorescent calcium indicator, Fluo 3. […] The effect of 1 (0.0625 μg/mL) at different time intervals (0, 3, 6 and 9 h) on the level of nuclear DNA integrity was determined. […]
(§2) Cell lysates were prepared by treating the cells for 30 min in RIPA lysis buffer, 1% Nonidet P-40, 0.5% sodium deoxycholate, 0.1% sodium dodecyl sulphate (SDS), 1 mM sodium orthovanadate, 100 μg/mL phenylmethylsulfonyl fluoride and 30 μg/mL aprotinin) (all chemicals were from Sigma)[38]. The lysates were centrifuged at 20,000 × g for 30 min, and the protein concentration in the supernatant was determined using a BCA protein assay kit (Pierce). […]
On the technique in general: A western blot detects proteins with antibodies after separation by electrophoresis.

Assay [4] has as its system PARP and caspases in Molt 4 cells. As to the kind of experiment: Western blot of apoptosis-related proteins. It counts as cell-based, human. The following applies: 0.0625 μg/mL, time-dependent. The method, then: as §1, §2
Assay [5] has as its system Molt 4 cells. The assay is described as follows: Neutral comet assay for DNA double-strand breaks. The format is cell-based, human. The following applies: 0.0625 μg/mL; 0, 3, 6 and 9 h; neutral electrophoresis. The method, then:
as §1
The assay was carried out using a CometAssayTM Kit (Trevigen, Gaithersburg, MD, USA) following the manufacturer’s protocol for the neutral Comet assay. […] The fluorescence images were analyzed using the TriTek Comet Image program to circumscribe the “head” and the “tail” regions of each comet and the integrated fluorescence values of each defined area were recorded. The comet length was measured from the trailing edge of the nucleus to the leading edge of the tail. […]

In assay [6] the test system is Ca9-22 cells. As to the kind of experiment: MTT antiproliferative assay, oral Ca9-22 cells. The following applies: Homo sapiens, Ca9-22, 72 h, read-out: IC50, cytotoxicity, Oral Ca9-22.
Text: (§3) Several cancer cell lines including leukemia K562, Molt 4, and HL 60 cells, prostate cancer LNCaP cells, colon cancer DLD-1 cells and breast cancer T-47D cells were used to evaluate the antiproliferative activity.
(§4) The cell lines were obtained from the American Type Culture Collection (ATCC, Manassas, VA, USA). […] Dimethyl sulfoxide (DMSO), 3-(4,5-dimethylthiazol-2-yl)-2,5-diphenyl-tetrazolium bromide (MTT) and all other chemicals were purchased from Sigma-Aldrich (St. Louis, MO, USA).
For assay [7], the system named is U937 cells. As to the kind of experiment: MTT antiproliferative assay, lymphoma U937 cells. Particulars: Homo sapiens, U-937, 72 h, read-out: IC50, cytotoxicity, Lymphoma U937. (Tetrazolium assays rely on reduction of a dye to a coloured formazan, in cell work by metabolically active cells.)
Assay [8] relates to HL 60 cells. As to the kind of experiment: MTT antiproliferative assay, leukemia HL 60 cells. Particulars: Homo sapiens, HL-60, 72 h, read-out: IC50, cytotoxicity, Leukemia HL 60.
Text: as §3, §4
Assay [9] has as its system Sup-T1 cells. The assay is described as follows: MTT antiproliferative assay, lymphoma Sup-T1 cells. Particulars: Homo sapiens, SUP-T1, 72 h, read-out: IC50, cytotoxicity, Lymphoma Sup-T1.
The test system of assay [10] is T-47D cells. The assay is described as follows: MTT antiproliferative assay, breast cancer T-47D cells. The following applies: Homo sapiens, T47D, 72 h, read-out: IC50, cytotoxicity, Breast T-47D.
Text: as §3, §4

≈ marks a conversion by molar mass, not a printed value. Like-named read-outs stand apart in the source and are kept apart here.

T1 sequence (P11388 whole entry): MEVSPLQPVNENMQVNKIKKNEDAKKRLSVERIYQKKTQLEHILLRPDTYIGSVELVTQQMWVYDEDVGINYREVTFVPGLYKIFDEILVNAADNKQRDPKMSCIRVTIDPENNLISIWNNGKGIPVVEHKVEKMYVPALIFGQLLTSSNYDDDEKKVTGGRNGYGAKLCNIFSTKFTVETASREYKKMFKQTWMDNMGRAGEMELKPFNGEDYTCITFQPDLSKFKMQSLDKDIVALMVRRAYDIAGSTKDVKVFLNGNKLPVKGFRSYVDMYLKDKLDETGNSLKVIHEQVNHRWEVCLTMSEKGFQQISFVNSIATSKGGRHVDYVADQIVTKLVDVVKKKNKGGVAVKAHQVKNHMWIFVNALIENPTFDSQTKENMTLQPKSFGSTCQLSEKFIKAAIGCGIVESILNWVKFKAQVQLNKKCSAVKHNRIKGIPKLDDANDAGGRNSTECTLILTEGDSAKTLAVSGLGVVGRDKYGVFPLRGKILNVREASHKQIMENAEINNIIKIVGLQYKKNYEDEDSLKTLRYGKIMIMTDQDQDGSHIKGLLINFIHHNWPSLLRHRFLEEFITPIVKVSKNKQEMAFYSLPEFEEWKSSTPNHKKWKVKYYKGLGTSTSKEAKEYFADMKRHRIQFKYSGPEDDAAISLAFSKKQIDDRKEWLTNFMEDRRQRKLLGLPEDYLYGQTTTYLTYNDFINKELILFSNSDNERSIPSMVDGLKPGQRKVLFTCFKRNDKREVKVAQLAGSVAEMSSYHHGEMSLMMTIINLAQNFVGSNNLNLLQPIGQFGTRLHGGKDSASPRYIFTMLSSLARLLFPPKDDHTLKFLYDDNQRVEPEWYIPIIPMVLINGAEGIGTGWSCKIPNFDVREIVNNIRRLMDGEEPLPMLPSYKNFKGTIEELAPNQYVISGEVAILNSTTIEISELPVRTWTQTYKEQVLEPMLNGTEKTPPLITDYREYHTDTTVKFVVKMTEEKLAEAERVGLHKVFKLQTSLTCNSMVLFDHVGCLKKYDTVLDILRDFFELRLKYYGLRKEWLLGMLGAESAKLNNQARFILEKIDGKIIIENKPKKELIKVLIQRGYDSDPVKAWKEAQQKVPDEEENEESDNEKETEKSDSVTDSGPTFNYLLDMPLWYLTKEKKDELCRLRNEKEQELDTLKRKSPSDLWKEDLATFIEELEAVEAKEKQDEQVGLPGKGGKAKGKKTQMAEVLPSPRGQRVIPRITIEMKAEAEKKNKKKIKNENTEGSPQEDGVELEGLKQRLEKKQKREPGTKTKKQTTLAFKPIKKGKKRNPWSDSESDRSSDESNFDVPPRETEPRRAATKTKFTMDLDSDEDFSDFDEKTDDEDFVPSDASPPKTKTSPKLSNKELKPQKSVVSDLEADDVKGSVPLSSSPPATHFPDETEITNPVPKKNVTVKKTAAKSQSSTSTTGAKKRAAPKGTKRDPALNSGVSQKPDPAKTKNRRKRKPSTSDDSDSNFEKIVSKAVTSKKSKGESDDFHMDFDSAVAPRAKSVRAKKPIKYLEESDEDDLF

As a reminder, the IC50 is the concentration needed to halve the response being measured. What is called inhibition is the share of the control response that was lost under treatment. As to `CC[C@@]1(C)CCC[C@]2(C)[C@H]3C[C@@H](OC(=O)C[C@@H](C)O)[C@]4(C)[C@@H](C=O)C(C(C)=O)=CC[C@H]4[C@]3(C)CC[C@@H]12` (relative stereo) [Compound 1, 12β-(3′β-hydroxybutanoyloxy)-20,24-dimethyl-24-oxo-scalara-16-en-25-al], the IC50 in assay [1] (72 h, read-out: IC50, cytotoxicity, Leukemia Molt 4) is 0.01 µg/mL; in assay [1] (molar value in brackets, read-out: antiproliferative activity (IC50), Molt 4), 19.1 nM; in assay [6], 0.1 µg/mL (≈ 0.2 µM); in assay [7], 0.01 µg/mL (≈ 0.02 µM); in [8], 0.01 µg/mL (≈ 0.02 µM); in assay [9] it was 0.13 µg/mL (≈ 0.26 µM). Besides, in assay [10], the IC50 came to 2.19 µg/mL (≈ 4.37 µM). In assay [2] (0.08 μg/mL), this molecule returned an inhibition at 0.08 µg/mL of 12%. Moreover, the inhibition at 0.312 µg/mL in assay [2] (0.312 μg/mL) is 13%. Moreover, in assay [2] (1.25 μg/mL), the inhibition at 1.25 µg/mL was determined as 17%. Also, the inhibition at 5 µg/mL in assay [2] (5 μg/mL) was found to be 20%. For the same molecule, 20 µg/mL produced 99% inhibition in assay [2] (20 μg/mL). The “levels of ER stress-related proteins” value in assay [3] was “promoted the levels of Bip, Chop, Grp 94 as well as the activation and cleavage of ATF 6 but suppressed the levels of PERK and IRE 1”. The “PARP and caspase cleavages” value in [4] is “significant increase of PARP, caspases-8 and −9 cleavages”. The “DNA migration (DSBs), comet assay” value in [5] is given as “increased the degree of DNA migration”.
